The values that follow come from patent US9828338B2, “Carbamate derivatives of lactam based N-acylethanolamine acid amidase (NAAA) inhibitors” (The Regents of the University of California, priority 2013, dated 2017).

The structures appear in SMILES notation.

One assay addresses T1, r-NAAA (Rattus norvegicus, UniProt Q5KTC7).
T1 construct: Lysosomal NAAA protein preparation was obtained by homogenizing male Sprague-Dawley rat lungs; tissue Charles River (animals); host or cells: male Sprague-Dawley rat lung, soluble lysosomal fraction
T1 sequence (Q5KTC7 34-362): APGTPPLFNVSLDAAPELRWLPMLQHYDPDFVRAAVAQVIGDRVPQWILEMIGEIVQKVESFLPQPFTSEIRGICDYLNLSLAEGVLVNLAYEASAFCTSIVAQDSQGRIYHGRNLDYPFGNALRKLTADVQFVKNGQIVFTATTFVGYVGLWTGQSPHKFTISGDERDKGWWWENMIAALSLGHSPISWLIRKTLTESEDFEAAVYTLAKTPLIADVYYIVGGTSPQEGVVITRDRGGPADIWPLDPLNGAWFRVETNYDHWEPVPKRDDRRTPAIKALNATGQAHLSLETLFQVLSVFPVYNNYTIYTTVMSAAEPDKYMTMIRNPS
Kind of assay: UPLC/MS r-NAAA assay. Type of assay: biochemical.
Conditions: not given
As to the method: Lysosomal NAAA protein preparation was obtained by homogenizing male Sprague-Dawley rat lungs (Charles River) in 20 mM Tris-HCl buffer pH 7.4 containing 0.32M sucrose. […] Supernatants were then centrifuged at 12,000 xg for 30 min at 4° C. Pellets were then resuspended in PBS pH 7.4 and subjected to a freeze/thaw cycle at −80° C. The suspension was finally centrifuged at 105,000×g for 1 h at 4° C. The supernatant was then used in the enzymatic assay.
NAAA protein preparation was pre-incubated with various concentrations of test compounds or vehicle control in 100 mM NaH2PO4/Citrate buffer, 1% Triton-X, 3 mM DTT (pH 4.5) for 30 min at 37° C. Samples were then incubated with heptadecenoylethanolamide (50 μM, Avanti Polar Lipids) at 37° C. for 30 min. The reaction was terminated by addition of cold methanol containing heptadecanoic acid (NuCheck Prep) as internal standard. Samples were then analyzed by UPLC/MS (Acquity, Waters). […] The column temperature was 40° C. Electrospray ionization was in the negative mode, capillary voltage was 0.5 kV, cone voltage was […], desolvation temperature was 500° C. N2 was used as drying gas at a flow rate of 1000 L/hour and a temperature of 500° C. […] Calibration curves were generated using commercial heptadecenoic acid (NuCheck Prep) Inhibition of NAAA activity was calculated as reduction of heptadecenoic acid in the samples compared to vehicle controls. IC50 values were calculated by non-linear regression analysis of log [concentration]/inhibition curves using GraphPad Prism 5 (GraphPad Software Inc., CA—USA) applying a standard slope curve fitting.
As to `Cc1cc(COC(=O)N[C@H]2CNC2=O)ccc1-c1ccccc1` [Example 44, (3-Methyl-4-phenyl-phenyl)-methyl-N-[(3S)-2-oxoazetidin-3-yl]-carbamate], the IC50 (in general, the concentration at which inhibition is half-maximal) was found to be 0.59 µM. As to `CC(C)(C)c1ccc(COC(=O)N[C@H]2CNC2=O)cc1` [Example 57, (4-tert-Butylphenyl)-methyl-N-[(3S)-2-oxoazetidin-3-yl]-carbamate], the IC50 stood at 0.18 µM. Still for that read-out and setting: the value for `CCCCc1ccc(COC(=O)N[C@H]2CNC2=O)cc1` [Example 26, (4-Butylphenyl)-methyl-N-[(3S)-2-oxoazetidin-3-yl]-carbamate] was 0.046 µM; that for `C[C@@H]1NC(=O)[C@@H]1NC(=O)OCCCCC1CCCCC1` [Example 83, 4-Cyclohexylbutyl-N-[(2S,3R)-2-methyl-4-oxo-azetidin-3-yl]-carbamate] was 4.7 µM; that for `CC(C)(CCCCc1ccccc1)OC(=O)N[C@H]1CNC1=O` [Example 16, (1,1-Dimethyl-5-phenyl-pentyl)-N-[(3S)-2-oxoazetidin-3-yl]-carbamate] was 8 µM.

In turn, `C[C@H]1NC(=O)[C@@H]1NC(=O)OCCCCC1CCCCC1` [Example 80, 4-Cyclohexylbutyl-N-[(2R,3R)-2-methyl-4-oxo-azetidin-3-yl]-carbamate] displayed an IC50 of 21.5 µM. Compared with the last compound, the IC50 is about 2.7-fold higher. On the same count and under the same terms, to `Cc1cccc(-c2ccc(COC(=O)N[C@H]3CNC3=O)cc2)c1` [Example 43, [4-(m-Tolyl)-phenyl]-methyl-N-[(3S)-2-oxoazetidin-3-yl]-carbamate] belongs 0.87 µM.

The assay is the same for the next values; noted with them: @ 30 μM; read-out: r-NAAA UPLC/MS assay % inhib.
Turning to `C[C@H]1NC(=O)[C@H]1NC(=O)OCCCCCc1ccccc1` [Example 79, 5-Phenylpentyl-N-[(2R,3S)-2-methyl-4-oxo-azetidin-3-yl]-carbamate], the inhibition at 30 µM was 35%.

The assay is the same for the next values; noted with them: @100 μM.
Consider `CC1(C)NC(=O)[C@H]1NC(=O)OCc1ccc(-c2ccccc2)cc1` [Example 87, (4-Phenylphenyl)-methyl-N-[(3S)-2,2-dimethyl-4-oxo-azetidin-3-yl]-carbamate], for which the “r-NAAA UPLC/MS assay (n.a.)” value was “n.a. (n.a. = <10% inhib. @100 μM)”. Still for that read-out and setting: the value for `CC1(C)NC(=O)[C@@H]1NC(=O)OCc1ccc(C2CCCCC2)cc1` [Example 91, (4-Cyclohexylphenyl)-methyl-N-[(3R)-2,2-dimethyl-4-oxo-azetidin-3-yl]-carbamate] was “n.a. (n.a. = <10% inhib. @100 μM)”. For `CC1(C)NC(=O)[C@@H]1NC(=O)OCc1ccc(-c2ccccc2)cc1` [Example 90, (4-Phenylphenyl)-methyl-N-[(3R)-2,2-dimethyl-4-oxo-azetidin-3-yl]-carbamate], the “r-NAAA UPLC/MS assay (n.a.)” value is reported as “n.a. (n.a. = <10% inhib. @100 μM)”.

The same assay, now with this note: @100 μM; read-out: r-NAAA UPLC/MS assay % inhib.
As to `CC1(C)NC(=O)[C@H]1NC(=O)OCCCCC1CCCCC1` [Example 86, 4-Cyclohexylbutyl-N-[(3S)-2,2-dimethyl-4-oxo-azetidin-3-yl]-carbamate], the inhibition at 100 µM amounted to 18%.

The assay is the same for the next values; noted with them: read-out: r-NAAA UPLC/MS assay % inhib.
Consider `C[C@H]1NC(=O)[C@H]1NC(=O)OCc1ccc(C2CCCCC2)cc1` [Example 78, (4-Cyclohexylphenyl)-methyl-N-[(2R,3S)-2-methyl-4-oxo-azetidin-3-yl]-carbamate], for which the inhibition at 100 µM was 55%.

The target in the next assay is T2, human NAAA (Homo sapiens, UniProt Q02083).
T2 construct: made in house; host or cells: HEK293 cells, stably transfected; soluble lysosomal fraction used as enzyme source
T2 sequence (Q02083 29-359): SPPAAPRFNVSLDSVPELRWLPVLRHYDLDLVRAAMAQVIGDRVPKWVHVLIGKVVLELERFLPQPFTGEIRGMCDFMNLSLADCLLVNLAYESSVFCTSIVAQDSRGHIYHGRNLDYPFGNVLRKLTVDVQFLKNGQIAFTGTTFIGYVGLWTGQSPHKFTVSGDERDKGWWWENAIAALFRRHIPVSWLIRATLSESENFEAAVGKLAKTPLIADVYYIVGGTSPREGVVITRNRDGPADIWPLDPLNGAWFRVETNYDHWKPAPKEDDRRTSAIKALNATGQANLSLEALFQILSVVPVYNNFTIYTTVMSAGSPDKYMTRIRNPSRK
Kind of assay: Fluorogenic h-NAAA assay.
Conditions: not given
Type of assay: biochemical. As to the method:
Hek293 cells stably transfected with the human NAAA coding sequence cloned from a human spleen cDNA library were used as enzyme source. Recombinant HEK-hNAAA pellets were resuspended in homogenizing buffer, and sonicated. Samples were centrifuged at 800×g for 15 min at 4° C. and the resultant supernatants were then ultracentrifuged at 12,000×g for 30 min at 4° C. The pellets were resuspended in PBS pH 7.4 on ice and subjected to a freeze/thaw cycle at −80° C. The suspension was finally centrifuged at 105,000×g for 1 h at 4° C. Protein concentration was measured and samples aliquoted and stored at −80° C. until use.
The assay was run in Optiplate 96-wells black plates, in a total reaction volume of 200 μL. NAAA protein preparation (4.0 μg) was pre-incubated for 10 min with various concentrations of test compounds or vehicle control (5% DMSO) in 100 mM citrate/phosphate buffer (pH 4.5) containing 3.0 mM DTT, 0.1% Triton X-100, 0.05% BSA, 150 mM NaCl. N-(4-methyl-2-oxo-chromen-7-yl)-hexadecanamide was used as a substrate (5.0 μM) and the reaction carried over for 30 min at 37° C. The samples were then read in a Perkin Elmer Envision plate reader using an excitation wavelength of 360 nm and emission 460 nm. IC50 values were calculated by non-linear regression analysis of log [concentration]/inhibition curves using GraphPad Prism 5 (GraphPad Software Inc., CA—USA) applying a standard slope curve fitting.
On to `Cc1ccc(COC(=O)N[C@H]2CNC2=O)cc1` [Example 94, p-Tolylmethyl-N-[(3S)-2-oxoazetidin-3-yl]-carbamate], for which the IC50 stood at 1.23 µM. The compound `CCC[C@H]1CC[C@H](COC(=O)N[C@H]2CNC2=O)CC1` [Example 104] gave an IC50 of 0.006 µM.

`O=C(N[C@H]1CNC1=O)OCc1ccc(-c2ccccc2F)cc1` [Example 71, [4-(2-Fluorophenyl)-phenyl]-methyl-N-[(3S)-2-oxoazetidin-3-yl]-carbamate] gave an IC50 of 0.365 µM. Same read-out and setting: to `O=C(N[C@H]1CNC1=O)OCc1ccc(-c2nc3ccccc3o2)cc1` [Example 54, [4-(1,3-Benzoxazol-2-yl)-phenyl]-methyl-N-[(3S)-2-oxoazetidin-3-yl]-carbamate] belongs 0.675 µM. `C[C@@H]1NC(=O)[C@@H]1NC(=O)OCc1ccc(C2CCCCC2)cc1` [Example 85, (4-Cyclohexylphenyl)-methyl-N-[(2S,3R)-2-methyl-4-oxo-azetidin-3-yl]-carbamate] returned an IC50 of 0.619 µM. This IC50 and that of the compound before are within 1.5-fold of each other.

Still in this assay, the particulars now being: @ 2.5 μM; read-out: h-NAAA Fluorogenic assay % inhib.
For `O=C(N[C@H]1CNC1=O)OCCCOC1CCCCC1` [Example 50, 3-(Cyclohexoxy)-propyl-N-[(3S)-2-oxoazetidin-3-yl]-carbamate], the inhibition at […] is 25%.

On to `O=C(N[C@H]1CNC1=O)OCc1ccc(I)cc1` [Example 101, (4-Iodophenyl)-methyl-N-[(3S)-2-oxoazetidin-3-yl]-carbamate], for which the inhibition at […] worked out at 95%. Turning to `O=C(N[C@H]1CNC1=O)OCc1cnc(-c2ccccc2)nc1` [Example 98, (2-Phenylpyrimidin-5-yl)-methyl-N-[(3S)-2-oxoazetidin-3-yl]-carbamate], the inhibition at […] was determined as 26%.

In the case of `O=C(N[C@H]1CNC1=O)OCc1ccc(C(=O)N2CCCCC2)cc1` [Example 69, [4-(Piperidine-1-carbonyl)-phenyl]-methyl-N-[(3S)-2-oxoazetidin-3-yl]-carbamate], the inhibition at […] amounted to 12%. In the case of `O=C(N[C@H]1CNC1=O)OCCCc1ccccc1` [Example 27, 3-Phenylpropyl-N-[(3S)-2-oxoazetidin-3-yl]-carbamate], the inhibition at […] was determined as 45%. As for `O=C(N[C@H]1CNC1=O)OCc1ccc(C(=O)NCc2ccccc2)cc1` [Example 70, [4-(Benzylcarbamoyl)-phenyl]-methyl-N-[(3S)-2-oxoazetidin-3-yl]-carbamate], the inhibition at […] worked out at 40%. On the same count and under the same terms, to `O=C(N[C@H]1CNC1=O)OCc1ccc(C(=O)NC2CCCCC2)cc1` [Example 68, [4-(Cyclohexylcarbamoyl)-phenyl]-methyl-N-[(3S)-2-oxoazetidin-3-yl]-carbamate] belongs 18%. Still for that read-out and setting: to `O=C(N[C@H]1CNC1=O)OCc1ccc(-c2ccccc2)nc1` [Example 67, (6-Phenyl-3-pyridyl)-methyl-N-[(3S)-2-oxoazetidin-3-yl]-carbamate] belongs 60%; to `O=C(N[C@H]1CNC1=O)OCc1ccc(OC2CC3CCC2C3)cc1` (mixture of isomers) [Example 102, 4-[(1R,2R,4S)- and (1S,2S,4R)-Norbornan-2-yl]-oxyphenyl]-methyl-N-[(3S)-2-oxoazetidin-3-yl]-carbamate], 95%.

The same assay, now with this note: @ 50 μM; read-out: h-NAAA Fluorogenic assay % inhib.
With `O=C(N[C@H]1CNC1=O)OCCCCc1cccnc1` [Example 47, 4-(3-Pyridyl)-butyl-N-[(3S)-2-oxoazetidin-3-yl]-carbamate], the inhibition at 50 µM was 55%. For `O=C(N[C@H]1CNC1=O)OCCc1ccccc1` [Example 28, Phenethyl-N-[(3S)-2-oxoazetidin-3-yl]-carbamate], the inhibition at 50 µM turned out to be 65%.
